# According to ChEMBL document CHEMBL4680208, “Sulfone derivatives enter the cytoplasm of Candida albicans sessile cells” (Eur J Med Chem, 2020):
# Active and inactive are the calls of the source. The rule behind the calls is not given here.
# How the values were obtained:
# [1] = Drug uptake in Galleria mellonella larvae assessed as increase in fluorescence between cell wall and muscle layer measured after 2 hrs by fluorescence assay; type: ADME
# Candida albicans [2] = experiment: Antifungal activity against Candida albicans 90028 assessed as fungal growth inhibition at 0.5 ug/ml measured after 48 hrs by microdilution method relative to control; type: functional; conditions: read-out: GI
# Candida albicans [3] = experiment: Antifungal activity against Candida albicans 90028 assessed as fungal growth inhibition at 8 ug/ml measured after 18 hrs by microdilution method relative to control; type: functional; conditions: read-out: GI
# Candida albicans [4] = experiment: Antifungal activity against Candida albicans 90028 assessed as fungal growth inhibition at 8 ug/ml measured after 48 hrs by microdilution method relative to control; type: functional; conditions: read-out: GI
# Candida albicans [5] = experiment: Antifungal activity against Candida albicans 90028 assessed as fungal growth inhibition at 0.0625 ug/ml measured after 48 hrs by microdilution method relative to control; type: functional; conditions: read-out: GI
# Candida albicans [6] = experiment: Antifungal activity against Candida albicans 90028 assessed as fungal growth inhibition at 0.5 ug/ml measured after 18 hrs by microdilution method relative to control; type: functional; conditions: read-out: GI
# Candida albicans [7] = experiment: Antifungal activity against Candida albicans 90028 assessed as fungal growth inhibition at 4 ug/ml measured after 18 hrs by microdilution method relative to control; type: functional; conditions: read-out: GI
# Candida albicans [8] = experiment: Antifungal activity against Candida albicans 90028 assessed as fungal growth inhibition at 1 ug/ml measured after 48 hrs by microdilution method relative to control; type: functional; conditions: read-out: GI
# [9] = Drug uptake in Galleria mellonella larvae assessed as increase in fluorescence in longitudinal larva slides measured after 2 hrs by fluorescence assay; type: ADME, tissue-based
# Candida albicans [10] = experiment: Antifungal activity against Candida albicans 90028 assessed as fungal growth inhibition at 0.25 ug/ml measured after 18 hrs by microdilution method relative to control; type: functional; conditions: read-out: GI
# Candida albicans [11] = experiment: Antifungal activity against Candida albicans 90028 assessed as fungal growth inhibition at 0.0313 ug/ml measured after 18 hrs by microdilution method relative to control; type: functional; conditions: read-out: GI
# Candida albicans [12] = experiment: Antifungal activity against Candida albicans 90028 assessed as fungal growth inhibition at 2 ug/ml measured after 48 hrs by microdilution method relative to control; type: functional; conditions: read-out: GI
# Candida albicans [13] = experiment: Antifungal activity against Candida albicans 90028 assessed as fungal growth inhibition measured after 48 hrs by microdilution method; type: functional
# Candida albicans [14] = experiment: Antifungal activity against Candida albicans 90028 assessed as fungal growth inhibition at 0.0625 ug/ml measured after 18 hrs by microdilution method relative to control; type: functional; conditions: read-out: GI
# [15] = Cytotoxicity against African green monkey Vero cells by XTT assay; type: cell-based; conditions: chlorocebus sabaeus
# Candida albicans [16] = experiment: Induction of cell demise in Candida albicans infected in human TR146 cells at 16 ug/ml measured after 18 hrs by AO/propidium iodide staining based confocal laser scanning microscopy; type: functional, organism-based; conditions: dose 16.0 µg/ml
# Candida albicans [17] = experiment: Induction of cell demise in Candida albicans infected in human MRC5 cells at 16 ug/ml measured after 18 hrs by AO/propidium iodide staining based confocal laser scanning microscopy; type: functional, organism-based; conditions: dose 16.0 µg/ml
# Candida albicans [18] = experiment: Antifungal activity against Candida albicans 90028 assessed as fungal growth inhibition at 0.125 ug/ml measured after 48 hrs by microdilution method relative to control; type: functional; conditions: read-out: GI
# Candida albicans [19] = experiment: Antifungal activity against Candida albicans 90028 infected in Galleria mellonella larvae at 16 ug/ml by H and E staining based histological analysis; type: functional, organism-based; conditions: dose 16.0 µg/ml
# Candida albicans [20] = experiment: Induction of plasma membrane permeabilization in Candida albicans infected in human TR146 cells at 16 ug/ml measured after 18 hrs by propidium iodide staining based confocal laser scanning microscopy; type: functional, organism-based; conditions: dose 16.0 µg/ml
# Candida albicans [21] = experiment: Antifungal activity against Candida albicans 90028 assessed as fungal growth inhibition at 1 ug/ml measured after 18 hrs by microdilution method relative to control; type: functional; conditions: read-out: GI
# Candida albicans [22] = experiment: Antifungal activity against Candida albicans 90028 assessed as fungal growth inhibition at 0.125 ug/ml measured after 18 hrs by microdilution method relative to control; type: functional; conditions: read-out: GI
# Candida albicans [23] = experiment: Antifungal activity against Candida albicans 90028 assessed as fungal growth inhibition at 0.0313 ug/ml measured after 48 hrs by microdilution method relative to control; type: functional; conditions: read-out: GI
# Candida albicans [24] = experiment: Antifungal activity against Candida albicans 90028 assessed as fungal growth inhibition at 16 ug/ml measured after 18 hrs by microdilution method relative to control; type: functional; conditions: read-out: GI
# [25] = Toxicity in Galleria mellonella larvae assessed as survival at 16 ug/ml relative to control; conditions: at 16 µg/mL
# [26] = Cytotoxicity against human MRC5 cells by CellTiter 96 Aqueous One Solution Reagent based assay; type: cell-based
# Candida albicans [27] = experiment: Antifungal activity against Candida albicans 90028 assessed as fungal growth inhibition at 4 ug/ml measured after 48 hrs by microdilution method relative to control; type: functional; conditions: read-out: GI
# Candida albicans [28] = experiment: Antifungal activity against Candida albicans 90028 assessed as fungal growth inhibition at 0.25 ug/ml measured after 48 hrs by microdilution method relative to control; type: functional; conditions: read-out: GI
# Candida albicans [29] = experiment: Induction of plasma membrane permeabilization in Candida albicans infected in human MRC5 cells at 16 ug/ml measured after 18 hrs by propidium iodide staining based confocal laser scanning microscopy; type: functional, organism-based; conditions: dose 16.0 µg/ml
# Candida albicans [30] = experiment: Fungicidal activity against Candida albicans 90028 preincubated for 48 hrs followed by plating on SD agar and measured after 48 hrs; type: functional; conditions: time 96 hrs
# Candida albicans [31] = experiment: Antifungal activity against Candida albicans 90028 assessed as fungal growth inhibition at 2 ug/ml measured after 18 hrs by microdilution method relative to control; type: functional; conditions: read-out: GI
# Candida albicans [32] = experiment: Antifungal activity against Candida albicans 90028 assessed as fungal growth inhibition at 16 ug/ml measured after 48 hrs by microdilution method relative to control; type: functional; conditions: read-out: GI
# Candida albicans [33] = experiment: Anti-adhesive activity against Candida albicans assessed as reduction in […] adhesion to human TR146 cells at 8 ug/ml incubated for 2 hrs prior to cell infection and measured after 2 hrs by colony counting method relative to control; type: functional; set-up: scale not given: the % may be the effect or the level left; conditions: dose 8 µg/ml; time 4 hrs
# Candida albicans [34] = experiment: Antibiofilm activity against Candida albicans 90028 assessed as increasing in cell killing by XTT assay; type: functional
# Candida albicans [35] = experiment: Antibiofilm activity against Candida albicans 90028 assessed as cell killing at 256 ug/ml by XTT assay relative to control; type: functional; conditions: dose 256 µg/ml
# [36] = Induction of adhesive activity against Candida albicans assessed as increase in […] adhesion to human TR146 cells at 4 ug/ml incubated for 2 hrs prior to cell infection and measured after 2 hrs by colony counting method relative to control; type: cell-based; conditions: tr146, 4 h, dose 4 µg/ml
# Vero = experiment: Cytotoxicity against African green monkey Vero cells at 0.25 to 16 ug/ml by XTT assay relative to control; type: cell-based; conditions: chlorocebus sabaeus, at 0.25 to 16 µg/mL, dose 0.25-16 µg/ml
# Candida albicans [37] = experiment: Induction of plasma membrane disruption in Candida albicans assessed as accidental type cell death at 8 ug/ml measured after 18 hrs by Annexin V-FITC/propidium iodide staining based flow cytometry (reference value: 1.74 +/- 1.37%); conditions: dose 8.0 µg/ml
structure (smiles),measurement,setting,value
O=Cc1ccc(C2=C3C=CC=[N+]3[B-](F)(F)n3cccc32)cc1,Drug uptake,[1],Active
O=[N+]([O-])c1cc(S(=O)(=O)C(F)(F)I)ccc1N/N=C\c1ccc(C2=C3C=CC=[N+]3[B-](F)(F)n3cccc32)cc1,inhibition of growth at 0.5 µg/mL,Candida albicans [2],100%
same,inhibition of growth at 8 µg/mL,Candida albicans [3],100%
same,inhibition of growth at 8 µg/mL,Candida albicans [4],100%
same,inhibition of growth at 0.0625 µg/mL,Candida albicans [5],94.3%
same,inhibition of growth at 0.5 µg/mL,Candida albicans [6],100%
same,inhibition of growth at 4 µg/mL,Candida albicans [7],100%
same,inhibition of growth at 1 µg/mL,Candida albicans [8],100%
same,Drug uptake,[9],Not Active
same,inhibition of growth at 0.25 µg/mL,Candida albicans [10],100%
same,inhibition of growth at 0.0313 µg/mL,Candida albicans [11],100%
same,inhibition of growth at 2 µg/mL,Candida albicans [12],100%
same,MIC,Candida albicans [13],inactive
same,inhibition of growth at 0.0625 µg/mL,Candida albicans [14],100%
same,CC50,[15],≥ 8 µg/mL
same,Activity,Candida albicans [16],Active
same,Activity,Candida albicans [17],Active
same,inhibition of growth at 0.125 µg/mL,Candida albicans [18],95.5%
same,Activity,Candida albicans [19],inactive
same,Activity,Candida albicans [20],Active
same,inhibition of growth at 1 µg/mL,Candida albicans [21],100%
same,inhibition of growth at 0.125 µg/mL,Candida albicans [22],100%
same,inhibition of growth at 0.0313 µg/mL,Candida albicans [23],75.8%
same,inhibition of growth at 16 µg/mL,Candida albicans [24],100%
same,survival,[25],100%
same,CC50,[26],≥ 16 µg/mL
same,inhibition of growth at 4 µg/mL,Candida albicans [27],100%
same,inhibition of growth at 0.25 µg/mL,Candida albicans [28],97%
same,Activity,Candida albicans [29],Active
same,MFC,Candida albicans [30],≥ 16 µg/mL
same,inhibition of growth at 2 µg/mL,Candida albicans [31],100%
same,inhibition of growth at 16 µg/mL,Candida albicans [32],100%
NNc1ccc(S(=O)(=O)C(F)(F)I)cc1[N+](=O)[O-],inhibition of growth at 0.5 µg/mL,Candida albicans [2],70.1%
same,inhibition of growth at 8 µg/mL,Candida albicans [3],100%
same,inhibition of growth at 8 µg/mL,Candida albicans [4],100%
same,inhibition of growth at 0.0625 µg/mL,Candida albicans [5],15.5%
same,inhibition of growth at 0.5 µg/mL,Candida albicans [6],99.7%
same,Activity,Candida albicans [33],100%
same,inhibition of growth at 4 µg/mL,Candida albicans [7],100%
same,inhibition of growth at 1 µg/mL,Candida albicans [8],72.9%
same,inhibition of growth at 0.25 µg/mL,Candida albicans [10],100%
same,inhibition of growth at 0.0313 µg/mL,Candida albicans [11],88.2%
same,inhibition of growth at 2 µg/mL,Candida albicans [12],72.8%
same,MIC90,Candida albicans [13],8 µg/mL
same,inhibition of growth at 0.0625 µg/mL,Candida albicans [14],100%
same,CC50,Candida albicans [34],≤ 64 µg/mL
same,CC50,[15],≥ 32 µg/mL
same,inhibition of growth at 0.125 µg/mL,Candida albicans [18],22.9%
same,Activity,Candida albicans [35],40%
same,Activity,Candida albicans [19],inactive
same,inhibition of growth at 1 µg/mL,Candida albicans [21],100%
same,inhibition of growth at 0.125 µg/mL,Candida albicans [22],73.7%
same,inhibition of growth at 0.0313 µg/mL,Candida albicans [23],22%
same,fold change (FC),[36],13.78
same,inhibition of growth at 16 µg/mL,Candida albicans [24],100%
same,Activity,Vero,12.54%
same,survival,[25],100%
same,CC50,[26],≥ 16 µg/mL
same,Activity,Candida albicans [37],74.8%
same,inhibition of growth at 4 µg/mL,Candida albicans [27],74.9%
same,inhibition of growth at 0.25 µg/mL,Candida albicans [28],69.5%
same,MFC,Candida albicans [30],8 µg/mL
same,inhibition of growth at 2 µg/mL,Candida albicans [31],100%
same,inhibition of growth at 16 µg/mL,Candida albicans [32],100%
